From BindingDB's records for doi:10.1111/cbdd.12207 (Nirma University, 2014)

Molecular target: T1, Gag-Pol polyprotein [1148-1435] (Human immunodeficiency virus 1, UniProt P04585)
T1 construct: 1148-1435
Assay: HIV-1 Integrase Assay
Experimental: HIV-1 integrase inhibitory activity of compounds were determined using strand transferase inhibitory assay.

Row | Structure (SMILES) | IC50
1 | O=c1oc2ccccc2c(O)c1C1c2ccccc2Oc2c1c(=O)oc1ccccc21 (centres undefined) | 122 µM
2 | O=C1C(=O)c2ccccc2C(=O)C1=Cc1c(O)c(O)c2ccccc2c1O [2-hydroxy-3-[(3-hydroxy-1,4-dioxonaphthalen-2-yl)methyl]naphthalene-1,4-dione (Compound 10)] | 20 µM
3 | O=C(O)C(=O)CC(=O)c1cc(OCc2ccccc2)cc(OCc2ccccc2)c1 | 0.059 µM
4 | Oc1ccccc1CNNCC(O)COc1ccccc1 (centres undefined) [2-{[2-(2-hydroxy-3-phenoxypropyl)hydrazin-1-yl]methyl}phenol (Compound 15)] | 200 µM
5 | O=C(O)C(=O)CC(=O)c1cn(Cc2ccc(F)cc2)c2ccc(F)cc2c1=O [(2Z)-4-{6-fluoro-1-[(4-fluorophenyl)methyl]-4-oxoquinolin-3-yl}-2-hydroxy-4-oxobut-2-enoic acid (Compound 9)] | 2.3 µM
6 | Cn1c(=O)c(C(=O)O)c(O)c2cc(-c3ccc(F)cc3)ccc21 [6-(4-fluorophenyl)-4-hydroxy-1-methyl-2-oxoquinoline-3-carboxylic acid (Compound 6)] | 23 µM
7 | O=C(Nc1ncnc2c1ncn2Cc1ccc(F)cc1)c1ccc2cccnc2c1O [N-{9-[(4-fluorophenyl)methyl]purin-6-yl}-8-hydroxyquinoline-7-carboxamide (Compound 20)] | 11.2 µM
8 | O=C(NNCc1ccccc1O)c1ccccc1O [2-hydroxy-N'-[(2-hydroxyphenyl)methyl]benzohydrazide (Compound 4)] | 0.7 µM
9 | COc1cc2c(cc1OC)C(=O)N1CSCC1C(=O)S2 (centres undefined) [12,13-dimethoxy-5,9-dithia-3-azatricyclo[8.4.0.0 ,⁷]tetradeca-1(14),10,12-triene-2,8-dione (Compound 8)] | 331 µM
10 | O=C1/C(=C\c2cccc(O)c2)C=NN1C(=O)c1ccccc1O [(4Z)-2-(2-hydroxybenzoyl)-4-[(3-hydroxyphenyl)methylidene]pyrazol-3-one (Compound 11)] | 7.4 µM
11 | COC(=O)c1ccc2cc(CCc3ccc(O)c(O)c3)oc2c1 [methyl 2-[2-(3,4-dihydroxyphenyl)ethyl]-1-benzofuran-6-carboxylate (Compound 18)] | 43.8 µM
12 | O=C(NNC(=O)c1cccc(O)c1O)c1ccccc1O [2,3-dihydroxy-N'-(2-hydroxybenzoyl)benzohydrazide (Compound 17)] | 0.5 µM
13 | O=C(NCc1ccc(Cl)c(Cl)c1)c1nc(-c2cccs2)nc(O)c1O [N-[(3,4-dichlorophenyl)methyl]-5,6-dihydroxy-2-(thiophen-2-yl)pyrimidine-4-carboxamide (Compound 14)] | 0.01 µM
14 | O=C(NCc1cc2ccccc2s1)c1nc(-c2cccs2)nc(O)c1O [N-(1-benzothiophen-2-ylmethyl)-5,6-dihydroxy-2-(thiophen-2-yl)pyrimidine-4-carboxamide (Compound 12)] | 0.01 µM
15 | O=C(NO)c1ccc2c(c1)CCN2Cc1ccc(F)cc1F [1-[(2,4-difluorophenyl)methyl]-N-hydroxy-2,3-dihydroindole-5-carboxamide (Compound 1)] | 84 µM
16 | O=C(O)C(=O)CC(=O)c1c[nH]c2ccc(Cl)cc12 | 0.52 µM
17 | COC(=O)c1ccc(CC(=O)c2cc(C=O)c(O)cc2C)c(C)c1O [methyl 4-[2-(5-formyl-4-hydroxy-2-methylphenyl)-2-oxoethyl]-2-hydroxy-3-methylbenzoate (Compound 5)] | 123 µM
18 | O=C1c2ccccc2C(C2CCCCC2)C(=O)N1O (centres undefined) [4-cyclohexyl-2-hydroxy-4H-isoquinoline-1,3-dione (Compound 3)] | 1.35 µM
19 | C=c1[nH]n(C(=O)c2ccc(Cl)cc2)c(=O)c1=Cc1ccc(O)cc1 | 293 µM
